Reference: patent EP0452101B1, “Spiro bridged and unbridged heterocyclic compounds” (ISRAEL INSTITUTE FOR BIOLOGICAL RESEARCH, priority 1990, dated 1991)

Tests used:
[1] = target: T1, M2 muscarinic receptors (Rattus norvegicus, UniProt P10980); experiment: Displacement of 3H-QNB from rat cerebellum, 50 mM phosphate buffer; format: binding; settings: cerebellum
T1 construct: displacing from rat brain homogenates, cerebellum or frontal cortex; from tissue; host or cells: rat cerebellum homogenates
T1 sequence (P10980 1-466): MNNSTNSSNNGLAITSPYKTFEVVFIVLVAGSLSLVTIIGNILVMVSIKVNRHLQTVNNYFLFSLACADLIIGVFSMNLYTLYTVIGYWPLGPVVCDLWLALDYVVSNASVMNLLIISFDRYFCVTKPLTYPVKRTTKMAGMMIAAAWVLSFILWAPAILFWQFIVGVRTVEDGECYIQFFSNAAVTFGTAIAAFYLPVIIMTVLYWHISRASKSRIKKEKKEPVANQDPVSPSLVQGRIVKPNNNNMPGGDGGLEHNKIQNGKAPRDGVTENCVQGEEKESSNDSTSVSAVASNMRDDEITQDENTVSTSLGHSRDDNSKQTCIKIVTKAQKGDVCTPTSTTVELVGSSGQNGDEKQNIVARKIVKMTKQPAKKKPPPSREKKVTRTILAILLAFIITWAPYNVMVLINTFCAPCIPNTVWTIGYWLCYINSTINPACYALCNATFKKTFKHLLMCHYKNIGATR

[2] = target: T2, m3 subtype (SK-N-SH cells) (Homo sapiens, UniProt P20309); experiment: PI hydrolysis in SK-N-SH neuroblastoma cells; format: cell-based
T2 construct: endogenous in cells; host or cells: SK-N-SH human neuroblastoma cells
Experimental: (§1) The new compounds AF150, AF151, AF150(S) and AF125 were assayed for their ability to stimulate PI in CHO cells transfected with m1 and m3 receptors, respectively (Buck and Fraser, loc cit), and in cultured human neuroblastoma cells, line SK-N-SH, which express mainly the m3 subtype, but not the m1 subtype (Pinkas-Kramarski et al, Neurosci. Lett. 188: 335-340, 1990; Luthin et al Mol. Pharmacol. 34: 327-333, 1988). These compounds were also assayed on cultured PC12 cells which express mainly m4 subtype receptors and are coupled to inhibition of AC activity (Pinkas-Kramarski et al, loc cit).
(§2) Stimulation of PI breakdown was assayed using the method described by Stein et al (EMBO J. 7: 3031-3035, 1988), and modulation of AC activity was assayed by the method of Stein et al, loc cit and Pinkas-Kramarski et al (FEBS Lett., 239: 174-178, 1988). […]

[3] = target: T3, M1 muscarinic receptor (Rattus norvegicus, UniProt P08482); experiment: Displacement of 3H-PZ from cortical binding sites, Tris/Mn buffer, with and without GppNHp; parameters: from tissue; host or cells: rat cerebral cortex homogenates
T3 sequence (P08482 1-460): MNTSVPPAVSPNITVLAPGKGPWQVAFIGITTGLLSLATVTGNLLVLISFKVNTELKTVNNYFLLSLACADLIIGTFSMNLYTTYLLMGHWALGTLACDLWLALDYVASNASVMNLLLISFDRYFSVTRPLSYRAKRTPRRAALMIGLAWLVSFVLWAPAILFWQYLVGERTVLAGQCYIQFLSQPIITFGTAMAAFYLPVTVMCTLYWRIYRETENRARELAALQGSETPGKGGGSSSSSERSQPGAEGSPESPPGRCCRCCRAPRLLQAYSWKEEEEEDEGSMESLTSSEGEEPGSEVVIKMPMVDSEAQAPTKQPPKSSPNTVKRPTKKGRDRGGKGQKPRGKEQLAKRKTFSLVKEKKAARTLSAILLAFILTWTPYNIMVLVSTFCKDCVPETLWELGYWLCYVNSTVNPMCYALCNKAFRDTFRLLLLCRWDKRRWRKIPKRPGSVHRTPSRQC
Text: The binding of agonists to M1 muscarinic receptors and the effect of guanylyl imidophosphate (GppNHp). Agonists are known to be coupled with guanine nucleotide binding proteins (G proteins).
Non-hydrolyzable guanine nucleotides such as GppNHp dissociate the G protein from the receptor and decrease the affinity of the receptor for agonists but not for antagonists. […] Molec.
Under these conditions agonists of high efficacy ("full agonists") bind directly to the M1 receptor subtype with two affinities. […] The ratio of low and high affinities (KL/KH) of the M1 receptor may predict the relative efficacies of agonists to activate putative M1 receptor-mediated second messenger systems.
KH, KL, %H and %L are the apparent inhibition constants of the tested ligands for the high and low affinity sites, respectively. G is GppNHp (guanylyl imidodiphosphate), and was used in 0.1 mM concentration. Displacement of ^3H-PZ from cortical binding sites was performed in Tris/Mn buffer (pH 7.4) for one hour at 25°C; the buffer included 1 mM EDTA and 2mM Mn^++ ions. […] The binding data were analyzed using a GraphPAD program and were fitted to one or two components. Values are means from 1-3 experiments carried out in triplicates.

[4] = target: T4, m4 subtype receptors (PC12 cells) (Rattus norvegicus, UniProt P08485); experiment: Inhibition of adenylate cyclase activity in PC12 cells; format: cell-based
T4 construct: endogenous in cells; host or cells: PC12 cells
T4 sequence (P08485 1-478): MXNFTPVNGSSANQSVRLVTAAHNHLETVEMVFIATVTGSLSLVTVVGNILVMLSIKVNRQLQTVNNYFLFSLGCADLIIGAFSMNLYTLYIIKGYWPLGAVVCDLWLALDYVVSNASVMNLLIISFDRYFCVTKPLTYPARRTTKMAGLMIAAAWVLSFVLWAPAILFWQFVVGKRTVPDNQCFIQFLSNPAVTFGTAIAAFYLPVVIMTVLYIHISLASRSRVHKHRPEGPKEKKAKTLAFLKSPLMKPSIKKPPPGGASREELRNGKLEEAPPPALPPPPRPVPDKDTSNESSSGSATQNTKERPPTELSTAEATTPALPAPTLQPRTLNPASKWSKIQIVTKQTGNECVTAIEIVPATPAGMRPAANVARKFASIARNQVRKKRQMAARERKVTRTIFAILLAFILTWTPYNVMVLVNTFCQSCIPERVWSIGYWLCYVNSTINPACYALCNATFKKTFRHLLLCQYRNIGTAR
Experimental: as §1, §2

[5] = system: CA1 neurons in the hippocampal slice; experiment: Electrophysiological evaluation in rat hippocampal slices
Experimental: In general terms the effects of microdrops of AF150, ACh and PZ were applied to rat hippocampal cells recorded intracellularly. The exact concentrations of the drug at the receptor sites are not known, using this method. However, this method has an advantage over the perfusion method, in that it gives a more correct picture from the electrophysiological point of view (Segal, loc cit).
Intracellular responses to AF150 of CA1 neurons in the hippocampal slice were recorded, using the method of Segal. Small hyperpolarizing current pulses (current traces not shown) were alternated with stimulation of the Schaffer-commissural afferents producing postsynaptic potentials.

[6] = target: T3, M1 muscarinic receptor; experiment: Displacement of 3H-PZ from rat cerebral cortex, 10 mM phosphate buffer; format: binding; parameters: from tissue; host or cells: rat cerebral cortex homogenates; settings: for % H / Ki: cortex, Table 4; for Ki: read-out: 3H-PZ-Binding KH (a)
[7] = target: T3, M1 muscarinic receptor; experiment: Displacement of 3H-QNB from rat cerebral cortex, 50 mM phosphate buffer; format: binding; settings: cortex, Table 5
[8] = target: m3 receptors (Rattus norvegicus, UniProt P08483); experiment: PI hydrolysis in CHO cells transfected with m3 receptors; format: cell-based; settings: CHO m3; tested at 1mM
Experimental: as §1, §2

[9] = system: muscarinic receptors; experiment: (-)3H-QNB binding to rat cerebral cortex homogenates with and without Cu++ treatment
[10] = target: T5, m1 receptors (Rattus norvegicus, UniProt P08482); experiment: PI hydrolysis in CHO cells transfected with m1 receptors; format: cell-based
T5 construct: expressed in transfected cells; host or cells: CHO cells
T5 sequence (P08482 1-460): T3 sequence (P08482 1-460)

[11] = system: Male white mice of the CD-1 strain; experiment: Pharmacodynamic profile and general toxicity, Part B (signs, mortality, LD50); format: in vivo; settings: Table 10
Text: Male white mice of the CD-1 strain (Charles River, UK), within the body weight range of 18-26 g, were used throughout this study, carried out on AF123, AF125 and AF125(N).
Furthermore, these initial trials clearly established that the major signs of reactions to treatment consisted primarily of signs characteristic for potential cholinomimetic activity of the test material, such as tremors, salivation, lacrimation, diarrhea, analgesia, hypothermia and vasodilation. […]

[12] = Chemical stability (thermal, aqueous solution); format: physicochemical; settings: free base, monitored with 1H-NMR
Text: Most of these compounds are relatively stable. […] Its chemical behaviour resembles that of known 2-oxazoline derivatives. […] The formation of the decomposition products can be monitored with ^1H-NMR by inspection at two regions δ 3.3-3.5 (appearance of two doublets) and 1.9-2.0 ppm (appearance of two additional singlets).
The expected decomposition pattern (when e.g., X is O and Y is N) involves opening of the oxazoline ring to form both amide and ester as shown in Scheme E, in which the quinuclidine-derived compounds are depicted illustratively. The formation of two new singlets at δ 1.9-2.0 ppm as expected for R = Me of these two structures are in agreement with this supposition. [drawing 32]
Ring opening is much faster in the presence of dilute hydrochloric acid. […] The tendency to decomposition of such salts complicates the optical separation of compounds such as AF125 and AF123. However, this problem can be overcome by using the method described for the optical separation of the enantiomers of AF125, or alternatively the amino-alcohols such as 3-aminomethylquinuclidin-3-ol can be resolved and the separated enantiomers can then be cyclized using an ester or imidate as already described. In yet another alternative the N-acyl derivatives of (e.g.) 3-aminomethylquinuclidin-3-ol can be resolved and the separated enantiomers can then be cyclized per se as shown in Scheme K: [drawing 33] […]

[13] = 400 mg/kg p.os, animals affected/treated

T2 sequence (P20309 whole entry): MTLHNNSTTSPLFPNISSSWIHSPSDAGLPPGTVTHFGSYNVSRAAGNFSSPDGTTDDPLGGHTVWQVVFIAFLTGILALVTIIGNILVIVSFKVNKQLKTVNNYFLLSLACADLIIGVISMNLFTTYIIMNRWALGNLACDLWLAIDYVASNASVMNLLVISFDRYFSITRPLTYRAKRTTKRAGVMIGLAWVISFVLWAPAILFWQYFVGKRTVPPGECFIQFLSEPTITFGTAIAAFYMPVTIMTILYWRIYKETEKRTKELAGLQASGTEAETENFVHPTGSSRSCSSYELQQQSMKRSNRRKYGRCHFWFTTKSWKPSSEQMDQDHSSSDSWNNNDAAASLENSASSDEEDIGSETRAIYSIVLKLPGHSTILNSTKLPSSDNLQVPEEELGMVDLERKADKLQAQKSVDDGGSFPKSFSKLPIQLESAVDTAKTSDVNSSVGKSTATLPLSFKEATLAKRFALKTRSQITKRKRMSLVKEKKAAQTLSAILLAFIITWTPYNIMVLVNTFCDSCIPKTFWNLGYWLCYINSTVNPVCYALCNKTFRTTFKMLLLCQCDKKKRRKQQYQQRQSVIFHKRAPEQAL
Sequence of m3 receptors (P08483 whole entry): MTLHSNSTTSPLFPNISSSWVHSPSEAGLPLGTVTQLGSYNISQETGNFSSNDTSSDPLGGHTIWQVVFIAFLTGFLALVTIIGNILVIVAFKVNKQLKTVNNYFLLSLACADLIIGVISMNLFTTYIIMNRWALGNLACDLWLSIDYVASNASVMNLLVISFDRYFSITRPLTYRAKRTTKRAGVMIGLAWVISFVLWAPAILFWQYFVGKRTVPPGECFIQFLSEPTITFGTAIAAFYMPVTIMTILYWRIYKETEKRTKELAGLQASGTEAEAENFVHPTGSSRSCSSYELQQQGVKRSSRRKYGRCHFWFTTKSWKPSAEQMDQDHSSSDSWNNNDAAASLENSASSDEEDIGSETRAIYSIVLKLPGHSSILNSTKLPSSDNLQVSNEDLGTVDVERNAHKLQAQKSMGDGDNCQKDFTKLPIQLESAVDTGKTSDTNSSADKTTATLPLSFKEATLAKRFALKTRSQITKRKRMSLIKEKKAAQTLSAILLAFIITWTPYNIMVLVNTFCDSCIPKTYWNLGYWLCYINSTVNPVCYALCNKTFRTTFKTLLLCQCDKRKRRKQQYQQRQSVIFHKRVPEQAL

CC1OC2(CS1)CN1CCC2CC1 (stereo not drawn) [AF102B, cis-2-methylspiro(1,3-oxathiolane-5',3)quinuclidine, reference compound]
Ki ([1]; 3H-QNB-Binding KH2 (c), Table 5): 5.9 µM
Ki ([1]; 3H-QNB-Binding KH (c), Table 4): 6 µM
% H ([1]; Table 4): 100%
% H2 ([1]; Table 5): 100%
block of oxotremorine-M-induced phosphoinositide hydrolysis [2]: completely blocked
PI (phosphoinositides hydrolysis) ([2]; SK-N-SH m3, tested at 1mM): -
inhibition at 1000 µM ([2]; SK-N-SH, read-out: inhibition of the oxotremorine-M signal): 34%
stimulation of phosphoinositide hydrolysis ([2]; even at 1 mM): failed to stimulate phosphoinositide hydrolysis
Ki ([3]; +G (0.1 mM GppNHp), read-out: KH): 0.7 to 1 µM
Ki ([3]; +G (0.1 mM GppNHp), read-out: KL): 0.7 to 1 µM
Ki ([3]; -G (without GppNHp), read-out: KH): 0.7 to 1 µM
Ki ([3]; -G, read-out: KL): 0.7 to 1 µM
AC, % of carbachol effect ([4]; PC12 m4): 40%
effective concentration which induces the effect ([4]; PC12 m4, AC activity, footnote b): 0.1^b µM
AC (adenylate cyclase activity) ([4]; PC12 m4, tested at 1mM): +
slow AHP (Ca++-dependent K+ conductance) ([5]; applied topically by microdrops): block the slow AHP
depolarization ([5]; applied topically by microdrops (AF150: 100 µM)): not shown in the case of AF102B
% H [6]: 100%
Ki [6]: 1 µM
% H1 [7]: 100%
PI (phosphoinositides hydrolysis) [8]: -
%H (% of high affinity state) ([9]; with Cu++ pretreatment (100 µM, 30 minutes)): 26%
%H (% of high affinity state) ([9]; with Cu++ pretreatment (100 µM, 30 minutes), listed as 4): 26±5%
%H (% of high affinity state) ([9]; without pretreatment): 0%
PI, % of carbachol effect ([10]; CHO m1): 20%
effective concentration which induces the effect ([10]; CHO m1, PI hydrolysis, footnote b): 30^b µM
PI (phosphoinositides hydrolysis) ([10]; CHO m1, tested at 1mM): +

CCC1=NCC2(CN3CCC2CC3)O1 (racemic) [AF123, 2-Ethyl spiro(1,3 oxazoline 5,3')quinuclidine]
Mortality no. ([11]; 50 mg/kg i.v.): 0/5
Mortality no. ([11]; 100 mg/kg i.v.): 5/5
Mortality time ([11]; 100 mg/kg i.v.): 1 min
Convulsive seizure (Con) ([11]; 100 mg/kg i.v., animals affected/treated): 5/5
Mortality no. ([11]; 200 mg/kg i.v.): 5/5
Mortality time ([11]; 200 mg/kg i.v.): immed
Mortality no. ([11]; 200 mg/kg p.os): 0/5
Mortality time ([11]; 200 mg/kg p.os): 3 min
Tremors (Tre) ([11]; 200 mg/kg p.os, animals affected/treated): 4/5
Mortality no. ([11]; 400 mg/kg p.os): 5/5
Mortality time ([11]; 400 mg/kg p.os): 3 min
Convulsive seizure (Con) [11, 13]: 5/5
Respiratory distress (Res) [11, 13]: 5/5
Tremors (Tre) [11, 13]: 5/5
Ki ([1]; 3H-QNB-Binding KH (c), Table 4): 3.9 µM
% H ([1]; Table 4): 100%
RATIOS c:a ([6]; KH cerebellum (3H-QNB) : KH cortex (3H-PZ)): 3.0
% H [6]: 100%
Ki [6]: 1.3 µM
decomposition in aqueous solution [12]: same pattern of decomposition
